Four molecules from patent US11236122B2, “Triterpene amine derivatives” (DFH THERAPEUTICS, priority 2018, dated 2022) can be followed below.

As a reminder, the IC50 is the midpoint of a concentration-inhibition curve. Lower therefore signals greater potency. Broadly, the CC50 is the concentration at which the toxic effect on the cells reaches its halfway point. Low values mean harm at low concentration, high ones better tolerance by the cells.

Series [1] has as its system WT pNL4-3. The experiment in a line: CA-SP1 accumulation assay, WT NL4-3. The series is classed as cell-based, HIV-1. Particulars: 10 nM compound, HeLa or 293T cells. On the procedure:
(§1) Cell culture, plasmids and transfections. The MT-4 T-cell line was maintained in RPMI-1640 medium supplemented with 10% (vol/vol) fetal bovine serum (FBS), 2 mM glutamine, 100 U/mL penicillin and 100 μg/mL streptomycin at 37° C. in a humidified 5% CO2 atmosphere. HeLa and 293T cells were maintained in Dulbecco's modified Eagle's medium (DMEM) supplemented with 5% (vol/vol) FBS, 2 mM glutamine, 100 U/mL penicillin and 100 μg/mL streptomycin. Molecular clones used in this study were WT pNL4-3 and the derivative encoding a Val-to-Ala mutation at SP1 residue 7, referred to as SP1-V7A. The MT-4 T-cell line was transfected the DEAE/dextran procedure; HeLa and 293T cells were transfected with linear polyethylenimine (L-PEI) or Lipofectamine 2000 (Invitrogen) as recommended by the supplier.
(§2) CA-SP1 accumulation assay. For CA-SP1 accumulation assays, HeLa or 293T cells were transfected with WT pNL4-3 or the SP1-V7A derivative. At 24 h post-transfection, cells were starved in Met/Cys-free medium for 30 min and metabolically labeled with [^35S]Met/Cys-Pro-mix (Amersham) for 2-3 h. Maturation inhibitors were maintained in the cultures throughout the transfection and labeling period. Viruses were collected by ultracentrifugation at 99,000×g for 45-60 min. Virus pellets were resuspended in Triton X-100 lysis buffer [300 mM NaCl, 50 mM Tris-HCl (pH 7.5), 0.5% Triton X-100, 10 mM iodoacetamide, and protease inhibitor cocktail tablets (Roche)]. CA and CA-SP1 proteins were separated on 13.5-15% polyacrylamide gels by SDS-polyacrylamide gel electrophoresis, exposed to a phosphorimager plate (Fuji) and quantified by Quantity One software (Bio-Rad).

Series [2] concerns pNL4-3 SP1-V7A. Kind of series: CA-SP1 accumulation assay, SP1-V7A derivative. The series is classed as cell-based, HIV-1. Particulars: 10 nM compound, HeLa or 293T cells. The method, then:
as §1, §2

The subject of series [3] is panel of HIV-1 isolates in human PBMCs. The experiment in a line: PBMC antiviral assay against a panel of HIV-1 isolates (RT activity). The series is classed as cell-based. The conditions noted are these: Human immunodeficiency virus 1, PBMC. On the procedure: Antiviral assays. To produce HIV-1 stocks, 293T cells were transfected with WT pNL4-3 or the SP1-V7A derivative and culture supernatants were collected 24 h post transfection. RT-normalized virus supernatants were used to infect MT-4 cells at room temperature for 30 min. Cells were then cultured in the presence of serial dilutions of compounds. At 4 d post-infection, the culture supernatants were subjected to RT assay to monitor viral replication. The 50% inhibitory concentrations (IC50s) were defined as compound concentrations that reduced RT levels to 50% those measured in the absence of inhibitor (DMSO only controls) using GraphPad Prism 6 software. The IC50s in primary peripheral blood mononuclear cells (PBMCs) were calculated with a multi-clade panel of HIV-1 isolates by Southern Research Institute (Frederick, Md.). The PBMCs were stimulated with phytohemagglutinin (PHA) and IL-2 prior to use in the antiviral assays.
Virus Isolates. Compound evaluation against a panel of HIV-1 isolates were performed by the Southern Research Institute (SRI). The viruses were chosen to include one isolate from each of the seven HIV-1 Group M envelope subtypes A, B, C, D, E, F, and G, as well as isolates from HIV-1 Groups O and N. In addition, various drug resistant HIV-1 isolates were included for evaluation. The HIV-1 isolates selected include CCR5-tropic and CXCR4-tropic isolates. Unless otherwise noted, all virus isolates were obtained from the NIH AIDS Research and Reference Reagent Program. Virus isolate 1022-48 was obtained from Dr. William A. Schief of Merck Research Laboratories. MDR769 and MDR807 were obtained from Dr. Thomas C. Merigan of Stanford University. A low passage stock of each virus was prepared using fresh human PBMCs and stored in liquid nitrogen. Pre-titered aliquots of each virus were removed from the freezer and thawed rapidly to rt in a biological safety cabinet immediately before use.
(§3) Human PBMC Preparation. Fresh human PBMCs were isolated from screened donors, seronegative for HIV and HBV (Biological Specialty Corporation, Colmar, Pa.). Cells were pelleted/washed 2-3 times by low speed centrifugation and resuspension in Dulbecco's phosphate buffered saline (PBS) to remove contaminating platelets. The leukophoresed blood was then diluted 1:1 with PBS and layered over 14 mL of Ficoll-Hypaque density gradient (Lymphocyte Separation Medium, Cell Grow #85-072-CL, density 1.078+/−0.002 g/mL) in a 50 mL centrifuge tube and then centrifuged for 30 min at 600×g. Banded PBMCs were gently aspirated from the resulting interface and subsequently washed twice with PBS by low speed centrifugation. After the final wash, cells were enumerated by trypan blue exclusion and re-suspended at 1×10^6 cells/mL in RPMI 1640 supplemented with 15% Fetal Bovine Serum (FBS), 2 mM L-glutamine, 100 U/mL penicillin, […] streptomycin, and 4 μg/mL Phytohemagglutinin (PHA; Sigma, St. Louis, Mo.; cat #L1668). The cells were allowed to incubate for 48-72 h at 37° C. After incubation, PBMCs were centrifuged and resuspended in RPMI 1640 with 15% FBS, L-glutamine, penicillin, streptomycin, non-essential amino acids (MEM/NEAA; Hyclone; cat #SH30238.01), and 20 U/mL recombinant human IL-2 (R&D Systems Inc., Minneapolis, Minn.; cat #202IL). PBMCs were maintained in this medium at a concentration of 1-2×10^6 cells/mL, with twice-weekly medium changes until they were used in the assay protocol. Monocytes-derived-macrophages were depleted from the culture as the result of adherence to the tissue culture flask.
PBMC Assay. For the standard PBMC assay, PHA stimulated cells from at least two normal donors were pooled (mixed together), diluted in fresh medium to a final concentration of 1×10^6 cells/mL, and plated in the interior wells of a 96 well round bottom microplate at 50 μL/well (5×10^4 cells/well) in a standard formate developed by the Infectious Disease Research Department of the SRI. […]

The nature of series [4]: in vitro. It counts as cell-based. The conditions noted are these: human. The method, then:
as §3
(§4) PBMC Assay. For the standard PBMC assay, PHA stimulated cells from at least two normal donors were pooled (mixed together), diluted in fresh medium to a final concentration of 1×10^6 cells/mL, and plated in the interior wells of a 96 well round bottom microplate at 50 μL/well (5×10^4 cells/well) in a standard formate developed by the Infectious Disease Research Department of the SRI. Pooling (mixing) of mononuclear cells from more than one donor was used to minimize the variability observed between individual donors, which results from quantitative and qualitative differences in HIV infection and overall response to the PHA and IL-2 of primary lymphocyte populations. Each plate contains virus control wells (cells plus virus) and experimental wells (drug plus cells plus virus). Test drug dilutions were prepared at a 2× concentration in microtiter tubes and 100 μL of each concentration was placed in appropriate wells using the standard format. 50 μL of a predetermined dilution of virus stock was placed in each test well (final MOI≈0.1). Separate plates were prepared identically without virus for drug cytotoxicity studies using an MTS assay system (described below; cytotoxicity plates also include compound control wells containing drug plus media without cells to control for colored compounds that affect the MTS assay). The PBMC cultures were maintained for seven days following infection at 37° C., 5% CO2. After this period, cell-free supernatant samples were collected for analysis of reverse transcriptase activity, and compound cytotoxicity was measured by addition of MTS to the separate cytotoxicity plates for determination of cell viability. Wells were also examined microscopically and any abnormalities were noted.
(§5) MTS Staining for PBMC Viability to Measure Cytotoxicity. At assay termination, the uninfected assay plates were stained with the soluble tetrazolium-based dye MTS (CellTiter 96 Reagent, Promega) to determine cell viability and quantify compound toxicity. MTS is metabolized by the mitochondria enzymes of metabolically active cells to yield a soluble formazan product, allowing the rapid quantitative analysis of cell viability and compound cytotoxicity. […] At termination of the assay, […] of MTS reagent was added per well and the microtiter plates were then incubated at 37° C., 5% CO2 to assess cell viability. […]

In series [5] the test system is human PBMCs. Kind of series: in vitro. Particulars: 7 days. The series is classed as cell-based. On the procedure: as §3, §4, §5

Turning to `C=C(C)[C@@H]1CC[C@]2(CCNCCN3CCN(Cc4cccc(Cl)c4)CC3)CC[C@]3(C)[C@H](CC[C@@H]4[C@@]5(C)CC[C@H](OC(=O)CC(C)(C)C(=O)O)C(C)(C)[C@@H]5CC[C@]43C)[C@@H]12` [Compound 51o, (3β)-17-[2-[[2-[4-(3-Chlorophenylmethyl)piperazin-1-yl]ethyl]amino]ethyl]-28-norlup-20(29)-en-3-ol, 3-(1-Hydrogen 2,2-Dimethylbutanedioate)], the “% CA-SP1 Accumulation 10 nM NL4-3” value in series [1] was 55.7%. Also, in series [2], the “% CA-SP1 Accumulation 10 nM SP1 V7A” value is listed as 39.4 (3) %. Also, the IC50 was 60.9 nM in series [3] (isolate 92RW009, PBMC); 8.1 nM in series [3] (isolate 92UG001, PBMC); 13.2 nM in series [3] (isolate 93BR020, PBMC); 14.8 nM in series [3] (isolate 93BR029, PBMC); 24.8 nM in series [3] (isolate 93IN101, PBMC); 33.2 nM in series [3] (isolate 99UGA07412MI, PBMC). The IC50 in series [3] (isolate BCF02, PBMC) is 38.1 nM; in series [3] (isolate CMU02, PBMC), 25 nM; in series [3] (isolate JV1083, PBMC), 220 nM. Moreover, in series [4], the half-maximal cytotoxic concentration (CC50) at 7 days was over 1000 nM. The same molecule showed a CC50 in series [5] of over 1000 nM.
As for `C=C(C)[C@@H]1CC[C@]2(CCNCCN3CCN(Cc4ccc(Cl)cc4)CC3)CC[C@]3(C)[C@H](CC[C@@H]4[C@@]5(C)CC[C@H](OC(=O)CC(C)(C)C(=O)O)C(C)(C)[C@@H]5CC[C@]43C)[C@@H]12` [Compound 51n, (3β)-17-[2-[[2-[4-(4-Chlorophenylmethyl)piperazin-1-yl]ethyl]amino]ethyl]-28-norlup-20(29)-en-3-ol, 3-(1-Hydrogen 2,2-Dimethylbutanedioate)], in series [1], the “% CA-SP1 Accumulation 10 nM NL4-3” value was 46.9%. Also, the “% CA-SP1 Accumulation 10 nM SP1 V7A” value in series [2] was 38.2 (3) %. Moreover, the IC50 in series [3] (isolate 92RW009, PBMC) turned out to be 25.9 nM; in series [3] (isolate 92UG001, PBMC), 5.3 nM; in series [3] (isolate 93BR020, PBMC), 12.8 nM; in series [3] (isolate 93BR029, PBMC) it was 18.4 nM; in series [3] (isolate 93IN101, PBMC), 23.3 nM; in series [3] (isolate 99UGA07412MI, PBMC) it was 31.4 nM. In addition, the IC50 in series [3] (isolate BCF02, PBMC) is 22 nM; in series [3] (isolate CMU02, PBMC), 17.3 nM; in series [3] (isolate JV1083, PBMC), 311 nM. The CC50 at 7 days in series [4] is over 1000 nM. Besides, the CC50 in series [5] was over 1000 nM.
For `C=C(C)[C@@H]1CC[C@]2(CCNCCN3CCN(Cc4cccc(F)c4)CC3)CC[C@]3(C)[C@H](CC[C@@H]4[C@@]5(C)CC[C@H](OC(=O)CC(C)(C)C(=O)O)C(C)(C)[C@@H]5CC[C@]43C)[C@@H]12` [Compound 51m, (3β)-17-[2-[[2-[4-(3-Fluorophenylmethyl)piperazin-1-yl]ethyl]amino]ethyl]-28-norlup-20(29)-en-3-ol, 3-(1-Hydrogen 2,2-Dimethylbutanedioate)], the “% CA-SP1 Accumulation 10 nM NL4-3” value in series [1] amounted to 53.7%. Further, the “% CA-SP1 Accumulation 10 nM SP1 V7A” value in series [2] is on record as 40.3 (3) %. For the same molecule, the IC50 in series [3] (isolate 92RW009, PBMC) turned out to be 27.9 nM; in series [3] (isolate 92UG001, PBMC), 7.9 nM; in series [3] (isolate 93BR020, PBMC) it was 8.4 nM; in series [3] (isolate 93BR029, PBMC), 10.8 nM; in series [3] (isolate 93IN101, PBMC), 21.5 nM; in series [3] (isolate 99UGA07412MI, PBMC), 17.8 nM. The concentration for half-maximal inhibition (IC50) was 16.7 nM in series [3] (isolate BCF02, PBMC); 18.8 nM in series [3] (isolate CMU02, PBMC); over 1000 nM in series [3] (isolate JV1083, PBMC). In addition, in series [4], the CC50 at 7 days was over 1000 nM. Also, the CC50 in series [5] was over 1000 nM.
On to `C=C(C)[C@@H]1CC[C@]2(CCNCCN3CCN(Cc4ccc5ccccc5c4)CC3)CC[C@]3(C)[C@H](CC[C@@H]4[C@@]5(C)CC[C@H](OC(=O)CC(C)(C)C(=O)O)C(C)(C)[C@@H]5CC[C@]43C)[C@@H]12` [Compound 51r, (3β)-17-[2-[[2-[4-(2-Naphthalenylmethyl)piperazin-1-yl]ethyl]amino]ethyl]-28-norlup-20(29)-en-3-ol, 3-(1-Hydrogen 2,2-Dimethylbutanedioate)], for which the “% CA-SP1 Accumulation 10 nM NL4-3” value in series [1] turned out to be 44.3%. Also, the “% CA-SP1 Accumulation 10 nM SP1 V7A” value in series [2] was 34.1 (3) %. In addition, the IC50 in series [3] (isolate 92RW009, PBMC) is over 1000 nM; in series [3] (isolate 92UG001, PBMC), 25.5 nM; in series [3] (isolate 93BR020, PBMC), 26 nM; in series [3] (isolate 93BR029, PBMC), 22.3 nM; in series [3] (isolate 93IN101, PBMC) it was 207 nM; in series [3] (isolate 99UGA07412MI, PBMC), 370 nM. Besides, the IC50 in series [3] (isolate BCF02, PBMC) was 62.3 nM; in series [3] (isolate CMU02, PBMC), over 1000 nM; in series [3] (isolate JV1083, PBMC), over 1000 nM. This molecule returned a CC50 at 7 days in series [4] of over 1000 nM. This molecule also yielded a CC50 in series [5] of over 1000 nM.
